Data from PubChem BioAssay AID1963850 (Molecular Pharmacology Branch, DTP, NCI, 2024).

System: 192522-019-R-J2-PDC complex tumor spheroid viability
Assay: Anticancer human tumor 192522-019-R-J2-PDC patient-derived colon adenocarcinoma cell line growth inhibition [POLQ]
Settings: for IC50: curve of first compound; for viability, T/C: stronger effect = lower value
Description: Multicellular complex tumor spheroid response to Polymerase (POL) inhibitors (novobiocin, ART-558, RP6685) in combination with a variety of drugs and investigational agents in selected tumor cell lines
The POL inhibitors (novobiocin, ART-558, and RP6685) were evaluated both individually and in combination with standard of care and investigational anticancer small molecules within a complex spheroid model of solid tumors. . Complex spheroids include a stromal component modeled by human endothelial cells (HUVEC) and fibroblasts modeled by human mesenchymal stem cells (MSCs). The concentration ranges selected for each drug and investigational agent were based upon clinically achievable concentrations if the clinical Cmax of the agent was known.
Compounds. The drugs and investigational agents: novobiocin (NSC847541), ART-558 (NSC835418), RP-6685 (NSC848927), peposertib (NSC802822), ceralasertib (NSC780249), elimusertib (NSC800525), camonsertib (NSC841442), AZD-1390 (NSC803789), olaparib (NSC753686), talazoparib (NSC767125), rucaparib (NSC756644), sotorasib (NSC818433), MRTX-1133 (NSC836407), SN-38 (NSC673596), topotecan (NSC609699), epotoside (NSC141540), doxorubicin (NSC123127), gemcitabine (NSC613327), 5-fluorouracil (NSC19893), paclitaxel (NSC125973), vemurafenib (NSC761431), MSA-2 (NSC828583), SN-011 (NSC837082), adavosertib (NSC754352), prexasertib (NSC758257), carboplatin (NSC241240) and oxaliplatin (NSC266046), were obtained from the National Cancer Institute (NCI) Developmental Therapeutics Program Chemical Repository (21). The FDA-approved anticancer drug set is available from the Developmental Therapeutics Program at https://dtp.cancer.gov/organization/dscb/obtaining/. […] The stock solutions were prepared in dimethyl sulfoxide (DMSO, Sigma-Aldrich, St. Louis, MO, cat. D2650), except for the platinum compounds which were prepared in saline (Quality Biological, Gaithersburg, MD, cat. 114-055-101), at 800-fold the tested concentration and stored at -70 degrees C prior to their use. All drugs and investigational agents were tested over a range starting from a high concentration at or near the clinical Cmax and decreasing in half-log increments. If the clinical Cmax for an agent had not been determined, the highest concentration tested was 10 microM, except for SN-38, which was tested at a high concentration of 1 microM.
Cell Culture. All cells were maintained in an incubator at 37 degrees C and 5% CO2 with 95% humidity. The PDC lines were cultured according to standard operating procedures established by the NCI PDMR (https://pdmr.cancer.gov). Table 3 of the manuscript, lists the cell lines along with the number of the three cell types plated to form the mct-spheroids and media for tumor cell growth. After thawing, all PDC lines, except 997537-175-T-J1-PDC and 415267-285-R-J2-PDC, were cultured in Matrigel-coated flasks prepared with a working solution of 1X Ham's F-12 nutrient mix, without supplementation (Thermo Fisher Scientific, cat. 11765054), 100 U/mL penicillin-streptomycin (Thermo Fisher Scientific, cat. 15140122), and 2.5% Matrigel (Corning Inc., Corning, NY, cat. 354248) for the first three passages. The two PDC lines 997537-175-T-J1-PDC and 415267-285-R-J2-PDC were cultured on uncoated flasks. The 857933-349-R-J2-PDC line was cultured in 6C/Colon 1B media containing advanced DMEM/F-12 (Thermo Fisher Scientific, cat. 12634028), 10 mM HEPES (Thermo Fisher Scientific, cat. 15630080), 1X GlutaMAX supplement (Thermo Fisher Scientific, cat. 35050061), 0.1 mg/mL primocin (InvivoGen, San Diego, CA, cat. ant-pm-2), 10% defined fetal bovine serum, heat inactivated (HyClone Laboratories Inc., Logan, UT, cat. SH30070.03HI), 50% L-WRN conditioned media (ATCC, cat. CRL-3276), 1.25 mM N-Acetyl-L-cysteine (Sigma-Aldrich, cat. A9165), 10 mM nicotinamide (Sigma-Aldrich, cat. N0636), 1X B-27 supplement (Thermo Fisher Scientific, cat. 17504044), 1X N-2 supplement (Thermo Fisher Scientific, cat. […]

[1] = second compound 0.0316 µM, first compound 0.0316 µM
[2] = second compound 0.0316 µM, first compound 0.1 µM
[3] = second compound 0.0316 µM, first compound 0.316 µM
[4] = second compound 0.0316 µM, first compound 1 µM
[5] = second compound 0.1 µM, first compound 0.0316 µM
[6] = second compound 0.1 µM, first compound 0.1 µM
[7] = second compound 0.1 µM, first compound 0.316 µM
[8] = second compound 0.1 µM, first compound 1 µM
[9] = second compound 0.316 µM, first compound 0.0316 µM
[10] = second compound 0.316 µM, first compound 0.1 µM
[11] = second compound 0.316 µM, first compound 0.316 µM
[12] = second compound 0.316 µM, first compound 1 µM
[13] = second compound 1 µM, first compound 0.0316 µM
[14] = second compound 1 µM, first compound 0.1 µM
[15] = second compound 1 µM, first compound 0.316 µM
[16] = second compound 1 µM, first compound 1 µM
[17] = second compound 3.16 µM, first compound 0.0316 µM
[18] = second compound 3.16 µM, first compound 0.1 µM
[19] = second compound 3.16 µM, first compound 0.316 µM
[20] = second compound 3.16 µM, first compound 1 µM
[21] = second compound 10 µM, first compound 0.0316 µM
[22] = second compound 10 µM, first compound 0.1 µM
[23] = second compound 10 µM, first compound 0.316 µM
[24] = second compound 10 µM, first compound 1 µM
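Note: spheroids exposed to drugs for seven days before reading.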
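Throughout, for viability, T/C: 100% = DMSO vehicle control viability in luminescence.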

Which IC50 (second compound 0.0316 µM) does the source give for `COc1cc(C2c3cc4c(cc3C(OC3OC5COC(C)OC5C(O)C3O)C3COC(=O)C23)OCO4)cc(OC)c1O` (centres undefined) + Nc1ccc(C#CCN(C(=O)Cc2ncc(C(F)(F)F)cc2C(F)(F)F)c2ccc(F)cc2)nn1 here?
Its IC50 is over 10 µM.

And the IC50 (second compound 0.1 µM)?
Its IC50 is over 10 µM.

What about the IC50 (second compound 0.316 µM) of the same molecule?
The IC50 was over 10 µM.

What about the IC50 (second compound 1 µM) of the same molecule?
The IC50 was over 10 µM.

And the IC50 (second compound 3.16 µM)?
Its IC50 is over 10 µM.

And the IC50 (second compound 10 µM)?
Its IC50 is over 10 µM.

And the viability, T/C [1]?
The viability, T/C was 105%.

And the viability, T/C [2]?
Its viability, T/C is 98.2%.

And the viability, T/C [3]?
The viability, T/C was 86.9%.

And the viability, T/C [4]?
Its viability, T/C is 83.2%.

What about the viability, T/C (second compound 0.0316 µM, first compound 3.16 µM) of the same molecule?
The viability, T/C was 68.9%.

And the viability, T/C (second compound 0.0316 µM, first compound 10 µM)?
Its viability, T/C is 77.8%.

And the viability, T/C [5]?
The viability, T/C was 110%.

And the viability, T/C [6]?
The viability, T/C was 92.2%.

And the viability, T/C [7]?
The viability, T/C was 97.5%.

And the viability, T/C [8]?
Its viability, T/C is 93.4%.

What about the viability, T/C (second compound 0.1 µM, first compound 3.16 µM) of the same molecule?
Its viability, T/C is 65.4%.

And the viability, T/C (second compound 0.1 µM, first compound 10 µM)?
The viability, T/C was 80.4%.

And the viability, T/C [9]?
Its viability, T/C is 106%.

What about the viability, T/C [10] of the same molecule?
The viability, T/C was 100%.

And the viability, T/C [11]?
Its viability, T/C is 96.4%.

What about the viability, T/C [12] of the same molecule?
Its viability, T/C is 87%.

And the viability, T/C (second compound 0.316 µM, first compound 3.16 µM)?
The viability, T/C was 67%.

And the viability, T/C (second compound 0.316 µM, first compound 10 µM)?
Its viability, T/C is 80%.

What about the viability, T/C [13] of the same molecule?
Its viability, T/C is 100%.

What about the viability, T/C [14] of the same molecule?
The viability, T/C was 91.9%.

And the viability, T/C [15]?
The viability, T/C was 98.2%.

And the viability, T/C [16]?
Its viability, T/C is 85.1%.

And the viability, T/C (second compound 1 µM, first compound 3.16 µM)?
The viability, T/C was 73.9%.

What about the viability, T/C (second compound 1 µM, first compound 10 µM) of the same molecule?
Its viability, T/C is 75%.

What about the viability, T/C [17] of the same molecule?
Its viability, T/C is 109%.

What about the viability, T/C [18] of the same molecule?
The viability, T/C was 96.4%.

And the viability, T/C [19]?
Its viability, T/C is 95.9%.

What about the viability, T/C [20] of the same molecule?
Its viability, T/C is 85.2%.

And the viability, T/C (second compound 3.16 µM, first compound 3.16 µM)?
The viability, T/C was 72.7%.

And the viability, T/C (second compound 3.16 µM, first compound 10 µM)?
Its viability, T/C is 76.1%.

What about the viability, T/C [21] of the same molecule?
The viability, T/C was 104%.

What about the viability, T/C [22] of the same molecule?
Its viability, T/C is 101%.

And the viability, T/C [23]?
Its viability, T/C is 96.9%.

And the viability, T/C [24]?
Its viability, T/C is 78.6%.

What about the viability, T/C (second compound 10 µM, first compound 3.16 µM) of the same molecule?
Its viability, T/C is 79.7%.

What about the viability, T/C (second compound 10 µM, first compound 10 µM) of the same molecule?
Its viability, T/C is 72.2%.

For `CCc1c2c(nc3ccc(O)cc13)-c1cc3c(c(=O)n1C2)COC(=O)[C@]3(O)CC` + Cc1cccc(N(C)C(=O)C2C(O)CCN2c2nc(C)cc(C(F)(F)F)c2C#N)c1, which IC50 (second compound 0.0316 µM) is on record?
Its IC50 is 0.131 µM.

And the IC50 (second compound 0.1 µM)?
The IC50 was 0.136 µM.

And the IC50 (second compound 0.316 µM)?
Its IC50 is 0.158 µM.

And the IC50 (second compound 1 µM)?
The IC50 was 0.229 µM.

And the IC50 (second compound 3.16 µM)?
Its IC50 is 0.234 µM.

And the IC50 (second compound 10 µM)?
Its IC50 is 0.112 µM.

And the viability, T/C (second compound 0.0316 µM, first compound 0.00316 µM)?
Its viability, T/C is 95.4%.

What about the viability, T/C (second compound 0.0316 µM, first compound 0.01 µM) of the same molecule?
The viability, T/C was 63.6%.

And the viability, T/C [1]?
Its viability, T/C is 72.2%.

And the viability, T/C [2]?
Its viability, T/C is 53.6%.

And the viability, T/C [3]?
Its viability, T/C is 40.3%.

And the viability, T/C [4]?
Its viability, T/C is 31.1%.

What about the viability, T/C (second compound 0.1 µM, first compound 0.00316 µM) of the same molecule?
The viability, T/C was 91.5%.

What about the viability, T/C (second compound 0.1 µM, first compound 0.01 µM) of the same molecule?
The viability, T/C was 66.2%.

And the viability, T/C [5]?
The viability, T/C was 75.8%.

And the viability, T/C [6]?
Its viability, T/C is 52.3%.

What about the viability, T/C [7] of the same molecule?
The viability, T/C was 36.7%.

What about the viability, T/C [8] of the same molecule?
Its viability, T/C is 33.5%.

What about the viability, T/C (second compound 0.316 µM, first compound 0.00316 µM) of the same molecule?
The viability, T/C was 104%.

And the viability, T/C (second compound 0.316 µM, first compound 0.01 µM)?
Its viability, T/C is 72.8%.

What about the viability, T/C [9] of the same molecule?
Its viability, T/C is 70.5%.

And the viability, T/C [10]?
The viability, T/C was 60.7%.

And the viability, T/C [11]?
The viability, T/C was 38.8%.

What about the viability, T/C [12] of the same molecule?
The viability, T/C was 33.9%.

What about the viability, T/C (second compound 1 µM, first compound 0.00316 µM) of the same molecule?
The viability, T/C was 95.1%.

What about the viability, T/C (second compound 1 µM, first compound 0.01 µM) of the same molecule?
The viability, T/C was 78.1%.

And the viability, T/C [13]?
The viability, T/C was 71.9%.

And the viability, T/C [14]?
Its viability, T/C is 61%.

What about the viability, T/C [15] of the same molecule?
Its viability, T/C is 44.5%.

What about the viability, T/C [16] of the same molecule?
Its viability, T/C is 35%.

What about the viability, T/C (second compound 3.16 µM, first compound 0.00316 µM) of the same molecule?
The viability, T/C was 101%.

And the viability, T/C (second compound 3.16 µM, first compound 0.01 µM)?
Its viability, T/C is 82.6%.

And the viability, T/C [17]?
Its viability, T/C is 79.1%.

What about the viability, T/C [18] of the same molecule?
The viability, T/C was 57.3%.

And the viability, T/C [19]?
The viability, T/C was 45.8%.

What about the viability, T/C [20] of the same molecule?
Its viability, T/C is 36.4%.

What about the viability, T/C (second compound 10 µM, first compound 0.00316 µM) of the same molecule?
Its viability, T/C is 97.6%.

And the viability, T/C (second compound 10 µM, first compound 0.01 µM)?
The viability, T/C was 69.4%.

And the viability, T/C [21]?
The viability, T/C was 68.8%.

What about the viability, T/C [22] of the same molecule?
The viability, T/C was 49.4%.

What about the viability, T/C [23] of the same molecule?
The viability, T/C was 42.6%.

What about the viability, T/C [24] of the same molecule?
The viability, T/C was 36.5%.
